Data as given in ChEMBL document CHEMBL5120862, “Novel non-covalent LSD1 inhibitors endowed with anticancer effects in leukemia and solid tumor cellular models” (Eur J Med Chem, 2022).
pIC50, pKd, pKi: −log10 of the molar value. The source made the active and inactive calls. No cut-off for these calls is given here.

Tests used:
LSD1/CoREST complex [1] = target: T1, LSD1/CoREST complex (Homo sapiens, UniProt O60341); assay: Binding affinity to human LSD1/CoREST assessed as dissociation constant by competitive fluorescence polarization assay; format: protein-complex assay
[2] = target: T2, Histone-lysine N-methyltransferase EHMT2 (Homo sapiens, UniProt Q96KQ7); assay: Inhibition of G9a (unknown origin) assessed as reduction in substrate methylation using histone H3 and SAM as substrate measured after 15 to 60 mins by microfluidic capillary electrophoresis analysis
T2 sequence (Q96KQ7 whole entry): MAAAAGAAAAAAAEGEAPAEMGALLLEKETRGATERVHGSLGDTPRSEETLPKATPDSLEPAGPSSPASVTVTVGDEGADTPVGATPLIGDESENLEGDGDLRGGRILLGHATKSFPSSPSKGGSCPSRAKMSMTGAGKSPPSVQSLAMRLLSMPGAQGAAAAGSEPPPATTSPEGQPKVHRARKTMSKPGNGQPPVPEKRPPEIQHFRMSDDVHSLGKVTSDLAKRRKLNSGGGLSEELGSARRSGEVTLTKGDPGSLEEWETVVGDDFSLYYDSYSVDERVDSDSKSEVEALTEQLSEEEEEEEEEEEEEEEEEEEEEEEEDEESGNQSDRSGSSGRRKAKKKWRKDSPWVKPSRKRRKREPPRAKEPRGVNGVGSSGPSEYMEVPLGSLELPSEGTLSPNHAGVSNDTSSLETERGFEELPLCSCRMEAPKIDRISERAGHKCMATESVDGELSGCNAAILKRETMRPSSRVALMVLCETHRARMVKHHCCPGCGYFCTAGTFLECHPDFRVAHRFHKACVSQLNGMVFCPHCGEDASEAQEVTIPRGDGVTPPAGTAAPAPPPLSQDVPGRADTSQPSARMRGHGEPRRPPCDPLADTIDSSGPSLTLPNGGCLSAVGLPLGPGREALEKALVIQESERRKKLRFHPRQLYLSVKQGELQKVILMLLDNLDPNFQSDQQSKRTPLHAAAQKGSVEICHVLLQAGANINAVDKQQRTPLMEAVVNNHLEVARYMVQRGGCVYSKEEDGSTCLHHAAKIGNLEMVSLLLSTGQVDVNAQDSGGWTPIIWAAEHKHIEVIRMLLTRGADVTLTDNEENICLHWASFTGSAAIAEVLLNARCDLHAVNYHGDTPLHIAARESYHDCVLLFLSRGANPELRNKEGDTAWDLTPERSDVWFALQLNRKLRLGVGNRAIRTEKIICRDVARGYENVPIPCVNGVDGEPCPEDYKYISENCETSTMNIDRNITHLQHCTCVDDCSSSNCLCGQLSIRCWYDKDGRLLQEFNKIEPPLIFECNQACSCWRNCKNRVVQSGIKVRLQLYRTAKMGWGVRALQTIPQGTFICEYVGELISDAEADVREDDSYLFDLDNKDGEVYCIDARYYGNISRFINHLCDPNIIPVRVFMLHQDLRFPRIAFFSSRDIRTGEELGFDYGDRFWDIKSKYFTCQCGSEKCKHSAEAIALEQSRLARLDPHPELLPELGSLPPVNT

LSD1/CoREST complex [3] = target: T1, LSD1/CoREST complex; assay: Inhibition of human LSD1/CoREST using histone H3 peptide as substrate by fluorescence polarization assay; format: protein-complex assay
[4] = target: Histone-lysine N-methyltransferase EZH2 (Homo sapiens) (UniProt Q15910); assay: Inhibition of EZH2 (unknown origin) using [3H]SAM and chicken core histone as substrates at 100 uM incubated for 1 hr relative to control
[5] = target: Histone-lysine N-methyltransferase, H3 lysine-79 specific (Homo sapiens) (UniProt Q8TEK3); assay: Inhibition of […] (unknown origin) using [3H]SAM and HeLa oligo nucleosomes as substrates at 100 uM incubated for 1 hr relative to control
THP-1 [6] = assay: Antiproliferative activity against human THP-1 cells assessed as inhibition of cell growth incubated for 72 hrs by CellTiter-Glo luminescent cell viability assay; format: functional, cell-based; conditions: THP-1, 72 h
MDA-MB-231 = assay: Antiproliferative activity against human MDA-MB-231 cells assessed as inhibition of cell growth measured after 72 hrs by MTT assay; format: functional, cell-based; conditions: MDA-MB-231, 72 h
THP-1 [7] = assay: Antiproliferative activity against human THP-1 cells assessed as inhibition of cell growth incubated for 24 hrs by CellTiter-Glo luminescent cell viability assay; format: functional, cell-based; conditions: THP-1, 24 h
THP-1 [8] = assay: Antiproliferative activity against human THP-1 cells assessed as inhibition of cell growth incubated for 144 hrs by CellTiter-Glo luminescent cell viability assay; format: functional, cell-based; conditions: THP-1, 144 h
[9] = target: Lysine-specific histone demethylase 1A (Homo sapiens) (UniProt O60341); assay: Inhibition of LSD1 in human MV4-11 cells assessed as increase in CD86 expression level incubated for 24 hrs by qRT-PCR analysis; format: cell-based; conditions: dose 0.2-1 µM
MV4-11 [10] = assay: Induction of cell cycle arrest in human MV4-11 cells assessed as accumulation of cells at G1 phase at 0.2 to […] incubated for 24 hrs; format: functional, cell-based; conditions: dose 0.2-2.5 µM
[11] = Cytotoxicity against HMEC cells assessed as residual cell viability at 1 uM incubated for 72 hrs by MTT assay relative to control; format: toxicity, cell-based; conditions: human, read-out: Activity
MV4-11 [12] = assay: Antiproliferative activity against human MV4-11 cells assessed as inhibition of cell growth at […] incubated for 72 to 144 hrs by trypan blue staining based analysis; format: functional; conditions: dose 2.5 µM, time 72-144 hrs
MV4-11 [13] = assay: Induction of apoptosis in human MV4-11 cells assessed as accumulation of cells at sub-G1 phase incubated for 24 hrs; format: functional, cell-based; conditions: dose 0.2-25 µM, DDE = dose-dependent effect
[14] = Cytotoxicity against human AHH-1 cells assessed as residual cell viability at 1 uM measured after 72 hrs by MTT assay relative to control; format: toxicity, cell-based; conditions: read-out: Activity
[15] = target: Lysine-specific histone demethylase 1A (Homo sapiens) (UniProt O60341); assay: Inhibition of LSD1 in human MV4-11 cells assessed as increase in H3K4me2 level at 0.2 to […] incubated for 24 hrs by Western blot analysis; format: cell-based; conditions: dose 0.2-2.5 µM

Chain of Histone-lysine N-methyltransferase EZH2 (Homo sapiens) (Q15910 whole entry, looked up): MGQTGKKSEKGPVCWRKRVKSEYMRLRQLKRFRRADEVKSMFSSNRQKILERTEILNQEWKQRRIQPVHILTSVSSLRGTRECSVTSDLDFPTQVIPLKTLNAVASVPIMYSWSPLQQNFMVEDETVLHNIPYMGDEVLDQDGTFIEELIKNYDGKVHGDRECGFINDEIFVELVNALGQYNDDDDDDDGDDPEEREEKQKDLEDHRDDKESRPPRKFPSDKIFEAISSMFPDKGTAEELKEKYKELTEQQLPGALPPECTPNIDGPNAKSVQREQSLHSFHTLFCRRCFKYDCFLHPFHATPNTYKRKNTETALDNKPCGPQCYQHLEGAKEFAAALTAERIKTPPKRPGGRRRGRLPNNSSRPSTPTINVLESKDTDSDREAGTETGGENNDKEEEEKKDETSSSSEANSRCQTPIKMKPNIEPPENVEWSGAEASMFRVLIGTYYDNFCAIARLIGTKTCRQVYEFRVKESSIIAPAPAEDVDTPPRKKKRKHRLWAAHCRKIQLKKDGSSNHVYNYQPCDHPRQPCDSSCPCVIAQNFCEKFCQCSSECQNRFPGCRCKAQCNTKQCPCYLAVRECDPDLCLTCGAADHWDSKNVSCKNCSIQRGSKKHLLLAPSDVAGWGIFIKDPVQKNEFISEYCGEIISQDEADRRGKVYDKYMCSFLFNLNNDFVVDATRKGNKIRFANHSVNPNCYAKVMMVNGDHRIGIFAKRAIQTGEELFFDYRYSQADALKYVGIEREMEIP
Chain of Histone-lysine N-methyltransferase, H3 lysine-79 specific (Homo sapiens) (Q8TEK3 whole entry, looked up): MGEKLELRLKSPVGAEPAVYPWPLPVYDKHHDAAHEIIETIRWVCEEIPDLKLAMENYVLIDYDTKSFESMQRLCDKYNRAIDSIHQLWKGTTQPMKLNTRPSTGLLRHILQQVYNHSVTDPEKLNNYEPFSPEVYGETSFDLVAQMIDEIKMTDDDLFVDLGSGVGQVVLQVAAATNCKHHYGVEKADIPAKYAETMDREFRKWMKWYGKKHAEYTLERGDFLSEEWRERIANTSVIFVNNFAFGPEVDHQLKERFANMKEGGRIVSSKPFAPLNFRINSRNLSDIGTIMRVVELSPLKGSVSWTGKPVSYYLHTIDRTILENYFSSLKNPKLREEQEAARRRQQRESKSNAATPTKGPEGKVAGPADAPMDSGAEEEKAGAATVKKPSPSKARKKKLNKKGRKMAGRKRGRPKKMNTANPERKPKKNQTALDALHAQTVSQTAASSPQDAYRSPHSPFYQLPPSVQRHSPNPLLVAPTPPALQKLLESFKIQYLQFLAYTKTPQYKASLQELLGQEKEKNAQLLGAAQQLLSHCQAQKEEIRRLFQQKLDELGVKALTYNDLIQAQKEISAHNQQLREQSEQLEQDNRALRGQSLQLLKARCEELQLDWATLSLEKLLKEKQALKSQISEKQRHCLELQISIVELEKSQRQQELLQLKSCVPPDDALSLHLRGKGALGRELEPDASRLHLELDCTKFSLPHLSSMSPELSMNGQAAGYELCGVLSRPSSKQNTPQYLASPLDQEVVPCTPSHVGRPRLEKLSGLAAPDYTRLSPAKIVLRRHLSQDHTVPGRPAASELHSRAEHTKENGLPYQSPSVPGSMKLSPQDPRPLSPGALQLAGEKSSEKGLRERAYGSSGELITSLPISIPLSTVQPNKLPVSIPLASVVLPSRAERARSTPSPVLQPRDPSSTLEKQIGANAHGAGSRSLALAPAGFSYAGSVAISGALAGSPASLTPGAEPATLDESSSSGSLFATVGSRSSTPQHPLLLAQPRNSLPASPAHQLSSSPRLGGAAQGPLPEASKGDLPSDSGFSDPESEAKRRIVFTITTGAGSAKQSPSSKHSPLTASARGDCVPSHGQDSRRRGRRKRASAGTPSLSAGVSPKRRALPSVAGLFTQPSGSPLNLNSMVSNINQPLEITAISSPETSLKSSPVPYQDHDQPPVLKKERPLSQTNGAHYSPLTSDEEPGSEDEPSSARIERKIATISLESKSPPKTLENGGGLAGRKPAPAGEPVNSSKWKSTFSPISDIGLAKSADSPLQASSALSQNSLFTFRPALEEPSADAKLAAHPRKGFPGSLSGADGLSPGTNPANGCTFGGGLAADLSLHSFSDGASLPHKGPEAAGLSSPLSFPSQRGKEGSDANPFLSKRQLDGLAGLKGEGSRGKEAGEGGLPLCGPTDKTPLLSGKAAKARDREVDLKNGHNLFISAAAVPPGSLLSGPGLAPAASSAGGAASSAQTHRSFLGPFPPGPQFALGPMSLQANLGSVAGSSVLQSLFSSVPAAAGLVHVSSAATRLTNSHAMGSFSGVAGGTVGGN

pKd (LSD1/CoREST complex [1])	pKi [2]	pKi (LSD1/CoREST complex [3])	Structure (SMILES)	further results
6.60	5.10	–	COc1cc2nc(NCCCN(C)C)nc(NC3CCN(Cc4ccccc4)C3)c2cc1OC (centres undefined)	–
7.09	5.40	6.74	COc1cc2nc(NCCCN3CCCC3)nc(NC3CCN(Cc4ccccc4)CC3)c2cc1OC	–
6.83	5.50	–	COc1cc2nc(NCCCN(C)C)nc(NC3CCN(CCc4ccccc4)CC3)c2cc1OC	–
6.63	5.28	–	COc1cc2nc(NCCN(C)C)nc(NC3CCN(Cc4ccccc4)CC3)c2cc1OC	–
6.79	5.05	–	COc1cc2nc(NCCCN(C)Cc3ccccc3)nc(NC3CCN(Cc4ccccc4)CC3)c2cc1OC	–
6.64	4.38	–	COc1cc2nc(NCCCN(C)C)nc(NCCNc3cccc4ccccc34)c2cc1OC	–
–	–	–	Nc1ncnc2c1ncn2[C@@H]1O[C@H](CSCC[C@H](N)C(=O)O)[C@@H](O)[C@H]1O	inhibition [4]: 84.2%; inhibition [5]: 100%
6.90	4.69	–	COc1cc2c(NCCNc3cccc4ccccc34)nc(NCCCN(C)C)nc2cc1OCc1ccccc1	–
7.09	4.33	6.69	COc1cc2nc(NCCCN(C)C)nc(NC3CCN(C(=O)OC(C)(C)C)CC3)c2cc1OC	pIC50 (THP-1 [6]): 6.15; pIC50 (THP-1 [7]): 6.06; pIC50 (THP-1 [8]): 6.26
7.09	5.93	6.84	COc1cc2nc(NCCCN(C)C)nc(NC3CCN(Cc4ccc(-c5ccccc5)cc4)CC3)c2cc1OC	inhibition [9]: Active; Activity (MV4-11 [10]): Active; viability at 72 h, 1 µM [11]: 88.1%; pIC50 (THP-1 [6]): 6.92; inhibition (MV4-11 [12]): Active; Activity (MV4-11 [13]): Dde; pIC50 (MDA-MB-231): 6.54; pIC50 (THP-1 [7]): 6.77; viability at 72 h, 1 µM [14]: 79.1%; pIC50 (THP-1 [8]): 7.06; inhibition [15]: Active
6.72	4.88	–	COc1cc2nc(NCCCN3CCN(C)CC3)nc(NC3CCN(Cc4ccccc4)CC3)c2cc1OC	–
7.17	5.49	6.77	COc1cc2nc(NCCCN3CCCCC3)nc(NC3CCN(Cc4ccccc4)CC3)c2cc1OC	–

Structure (SMILES)	pKd (LSD1/CoREST complex [1])	pKi [2]	pKi (LSD1/CoREST complex [3])	further results
COc1cc2nc(NCCCN(C)C)nc(N(C)C3CCN(Cc4ccccc4)CC3)c2cc1OC	6.45	< 4.00	6.24	pIC50 (THP-1 [6]): 6.37; pIC50 (MDA-MB-231): 5.62; pIC50 (THP-1 [7]): 6.17; pIC50 (THP-1 [8]): 6.52
